Results as given in patent US12454518B2, “Substituted N-(2-(2,6-dioxopiperidin-3-yl)-1,3-dioxoisoindolin-5-yl)arylsulfonamide analogs as modulators of cereblon protein” (ST. JUDE CHILDREN'S RESEARCH HOSPITAL, INC., priority 2020, dated 2025).
Like-named read-outs stand apart in the source and are kept apart here. Values belong to the compound of their own block, whether it stands above or below them.

Experiments:
[1] = Aqueous solubility assay; format: physicochemical; details: pH = 7.4, in triplicate
Protocol: The storage plate was sealed and incubated at RT for 18 h. The suspension was then filtered through a 96-well filter plate (pION Inc., Woburn, MA). 75 μL of filtrate was mixed with 75 μL 1-propanol to make the sample plate, and the UV spectrum of the sample plate was read. Calculations were carried out with μSOL Evolution software based on the area under the curve (AUC) of the UV spectrum of the sample and reference plates. All compounds were tested in triplicate.

[2] = biological target: T1, GSPT1 (Homo sapiens, UniProt P15170+Q96SW2); assay: Immunoblot analysis of GSPT1 degradation in MV4-11 cells; format: cell-based; design: Dmax: dose or concentration left out as unconfirmed
T1 construct: endogenous in cells; host or cells: MV4-11
T1 sequence (P15170 whole entry): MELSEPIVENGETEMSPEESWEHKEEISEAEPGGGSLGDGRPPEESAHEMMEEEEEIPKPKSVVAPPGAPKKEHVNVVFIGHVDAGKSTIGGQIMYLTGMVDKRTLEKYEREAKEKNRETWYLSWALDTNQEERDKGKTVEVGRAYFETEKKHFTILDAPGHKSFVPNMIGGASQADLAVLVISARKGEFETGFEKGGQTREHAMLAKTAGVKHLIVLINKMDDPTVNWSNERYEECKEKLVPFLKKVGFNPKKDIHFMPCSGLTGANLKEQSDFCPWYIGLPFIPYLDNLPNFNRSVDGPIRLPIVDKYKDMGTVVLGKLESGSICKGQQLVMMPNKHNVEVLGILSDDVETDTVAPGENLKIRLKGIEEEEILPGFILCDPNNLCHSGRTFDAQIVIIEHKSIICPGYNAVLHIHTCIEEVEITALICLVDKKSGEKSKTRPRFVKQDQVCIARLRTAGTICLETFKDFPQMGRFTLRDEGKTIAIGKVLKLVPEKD
T1 sequence (Q96SW2 whole entry): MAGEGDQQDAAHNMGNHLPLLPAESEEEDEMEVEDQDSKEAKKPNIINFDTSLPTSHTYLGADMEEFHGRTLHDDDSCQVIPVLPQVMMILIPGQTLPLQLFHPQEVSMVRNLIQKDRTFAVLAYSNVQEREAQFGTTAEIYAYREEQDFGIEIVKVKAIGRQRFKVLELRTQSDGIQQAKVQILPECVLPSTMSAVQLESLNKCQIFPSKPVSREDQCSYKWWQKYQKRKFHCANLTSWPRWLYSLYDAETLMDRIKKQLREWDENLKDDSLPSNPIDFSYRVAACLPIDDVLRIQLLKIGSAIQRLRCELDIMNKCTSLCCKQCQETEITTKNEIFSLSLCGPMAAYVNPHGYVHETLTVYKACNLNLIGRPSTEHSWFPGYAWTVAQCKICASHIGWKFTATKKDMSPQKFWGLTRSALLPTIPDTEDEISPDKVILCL
T1 sequence (Q16531 2-1140 partner limits assumed): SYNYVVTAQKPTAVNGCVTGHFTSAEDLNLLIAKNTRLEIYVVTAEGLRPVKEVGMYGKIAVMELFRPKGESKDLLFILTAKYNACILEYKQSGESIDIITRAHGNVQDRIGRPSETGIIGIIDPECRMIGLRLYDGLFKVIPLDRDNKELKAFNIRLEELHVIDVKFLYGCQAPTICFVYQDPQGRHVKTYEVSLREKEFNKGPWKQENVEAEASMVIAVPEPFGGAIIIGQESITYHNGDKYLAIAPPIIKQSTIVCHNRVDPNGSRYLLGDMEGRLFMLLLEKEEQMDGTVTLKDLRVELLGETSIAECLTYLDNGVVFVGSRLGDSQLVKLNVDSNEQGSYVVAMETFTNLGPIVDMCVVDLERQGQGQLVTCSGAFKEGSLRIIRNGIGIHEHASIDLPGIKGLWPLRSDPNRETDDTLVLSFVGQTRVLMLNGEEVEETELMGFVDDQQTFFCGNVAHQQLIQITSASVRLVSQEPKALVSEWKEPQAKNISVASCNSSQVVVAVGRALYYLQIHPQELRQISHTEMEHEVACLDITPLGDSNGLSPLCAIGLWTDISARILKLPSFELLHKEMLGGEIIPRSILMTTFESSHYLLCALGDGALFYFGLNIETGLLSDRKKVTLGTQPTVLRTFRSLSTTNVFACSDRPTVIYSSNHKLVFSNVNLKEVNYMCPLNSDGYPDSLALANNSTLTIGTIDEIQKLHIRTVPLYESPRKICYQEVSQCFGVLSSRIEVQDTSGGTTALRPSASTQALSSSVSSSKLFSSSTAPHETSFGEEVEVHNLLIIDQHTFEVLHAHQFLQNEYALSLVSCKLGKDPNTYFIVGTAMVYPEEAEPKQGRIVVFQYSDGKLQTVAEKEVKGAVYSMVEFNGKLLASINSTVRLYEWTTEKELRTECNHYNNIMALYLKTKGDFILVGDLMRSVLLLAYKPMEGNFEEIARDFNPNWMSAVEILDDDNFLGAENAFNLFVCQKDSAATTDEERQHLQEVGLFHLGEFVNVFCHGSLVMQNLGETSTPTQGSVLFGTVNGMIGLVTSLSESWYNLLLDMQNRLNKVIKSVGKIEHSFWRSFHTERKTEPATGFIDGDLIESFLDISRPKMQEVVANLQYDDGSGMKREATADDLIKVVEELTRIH
Protocol: (§1) MV4-11 cells were seeded in 6-well plates (1×10^6 cells per well). After overnight incubation, the cells were treated with indicated concentrations for specific timepoints. […] After blocking the membrane with LI-COR TBS blocking buffer and incubation in primary antibody overnight, the corresponding protein signals were detected using IRDye secondary antibodies and Odyssey Imaging System. Image Studio Lite Ver 5.2 was used for blot quantification. […] IRDye®, 800CW Goat anti-Mouse IgG Secondary Antibody and IRDye® 680RD Goat anti-Rabbit IgG Secondary Antibody were used as secondary antibodies.

[3] = biological target: T2, IKZF1 (Homo sapiens, UniProt Q13422); assay: Immunoblot analysis of IKZF1 degradation in MV4-11 cells; format: cell-based; details: for IKZF1 degradation at 4 hours: any of the concentrations tested
T2 construct: endogenous in cells; host or cells: MV4-11
T2 sequence (Q96SW2 whole entry partner): as the sequence (Q96SW2 whole entry) above
T2 sequence (Q16531 2-1140 partner limits assumed): as the sequence (Q16531 2-1140 partner limits assumed) above
T2 sequence (Q13422 whole entry): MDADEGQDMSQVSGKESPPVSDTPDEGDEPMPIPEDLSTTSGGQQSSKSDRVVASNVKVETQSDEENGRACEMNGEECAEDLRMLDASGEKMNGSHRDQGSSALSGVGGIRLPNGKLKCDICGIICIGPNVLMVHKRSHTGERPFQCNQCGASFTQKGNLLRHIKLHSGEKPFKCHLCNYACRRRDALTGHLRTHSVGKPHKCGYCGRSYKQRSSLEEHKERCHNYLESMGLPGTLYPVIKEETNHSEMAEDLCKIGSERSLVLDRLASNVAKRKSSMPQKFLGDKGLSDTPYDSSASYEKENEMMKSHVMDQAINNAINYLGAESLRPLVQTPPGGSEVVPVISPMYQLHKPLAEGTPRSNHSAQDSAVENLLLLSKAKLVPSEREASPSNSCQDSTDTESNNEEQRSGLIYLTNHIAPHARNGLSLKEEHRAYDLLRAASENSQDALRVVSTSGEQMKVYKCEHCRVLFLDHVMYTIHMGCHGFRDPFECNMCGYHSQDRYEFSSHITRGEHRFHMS
Protocol: as §1

[4] = test system: caspase 3/7 activity in Mv4:11 cells; assay: Caspase 3/7 activity assay; format: cell-based, human; details: Caspase-Glo, time points 4, 8 and 24 hours; 10 and 100 nM
[5] = Pharmacokinetics study in CD1 mice; format: in vivo; details: 3 mg/kg IV
Protocol: Healthy female CD1 mice (8-12 weeks old) weighing between 20 to 30 g were procured from Global, India. Three mice were housed in each cage. Temperature and humidity were maintained at 22±3° C. and 30-70%, respectively and illumination was controlled to give a sequence of 12 hr light and 12 hr dark cycle. Temperature and humidity were recorded by auto-controlled data logger system. All the animals were provided laboratory rodent diet (Envigo Research private Ltd, Hyderabad). Reverse osmosis water treated with ultraviolet light was provided ad libitum. Formulation vehicle: 5% v/v NMP: 5% v/v Solute HS-15 and 90% v/v normal saline. […] The dosing volume for intravenous was 5 mL/kg and for oral administration 10 mL/kg. Blood samples (approximately 60 μL) were collected under light isoflurane anesthesia (Surgivet®) from retro orbital plexus from a set of three mice at 0.08 (for IV only), 0.25, 0.5, 1, 2, 4, 6 (for PO only), 8, 12 and 24 hr. Immediately after blood collection, plasma was harvested by centrifugation at 4000 rpm, 10 min at […] and samples were stored at −70±10° C. until bioanalysis. […] Non-Compartmental-Analysis tool of Phoenix WinNonlin® (Version 8.0) was used to assess the pharmacokinetic parameters. Peak plasma concentration (Cmax) and time for the peak plasma concentration (Tmax) were the observed values. The areas under the concentration time curve (AUClast and AUCinf) were calculated by linear trapezoidal rule. The terminal elimination rate constant, ke was determined by regression analysis of the linear terminal portion of the log plasma concentration-time curve. Clearance was estimated as Dose/AUCinf and Vss as CL*MRT. The oral bioavailability was calculated as ratio of dose normalized AUC of oral and intravenous group multiplied by 100.

[6] = test system: MV4-11 cells; assay: Lenalidomide competition assay; format: cell-based, human; details: lenalidomide 10 μM, 3 days
[7] = test system: MV4-11 cells; assay: MV-4-11 cell viability assay; details: for EC50: Homo sapiens
[8] = biological target: T3, GSPT1 HiBiT tag protein in HEK293 cells (Homo sapiens, UniProt P15170+Q96SW2); assay: hGSPT1 HiBiT assay; format: cell-based; details: 4 hrs incubation, class symbols, read-out: GSPT1 HiBit EC50
T3 construct: HEK293_hGSPT1_HiBiT tagged cells were generated using CRISPR-Cas12a technology; endogenous in cells; host or cells: HEK293 (genome-edited at the GSPT1 locus, HiBiT knock-in)
T3 sequence (P15170 whole entry): as the sequence (P15170 whole entry) above
T3 sequence (Q96SW2 whole entry): as the sequence (Q96SW2 whole entry) above
T3 sequence (Q16531 2-1140 partner limits assumed): as the sequence (Q16531 2-1140 partner limits assumed) above
Protocol: hGSPT1 HiBiT cell line. HEK293_hGSPT1_HiBiT tagged cells were generated using CRISPR-Cas12a technology. Briefly, ˜400,000 HEK293 cells were transiently co-transfecting with precomplexed ribonuclear proteins (RNPs) consisting of 80 pmol of crRNA (IDT), 62 pmol of Cas12a protein (IDT), 3 ug of ssODN donor (IDT; AItR™ modifications), 78 pmol of electroporation enhancer (IDT), and 200 ng of pMaxGFP(Lonza). The transfection was performed via nucleofection (Lonza, 4D-Nucleofector™ X-unit) using solution P3 and program CM-130 in a small (20 ul) cuvette according to the manufacturer's recommended protocol. Five days post-nucleofection, cells were single cell sorted for GFP+(transfected) cells by FACs in 96-well plates and clonally selected. Clones were screened and verified for the desired modification via targeted deep sequencing using gene specific primers with partial Illumina adapter overhangs as previously described.^58 In brief, clonal cell pellets were harvested, lysed and used to generate gene specific amplicons with partial Illumina adapters in PCR #1. Amplicons were indexed in PCR #2 and pooled with other targeted amplicons for other loci to create sequence diversity. Additionally, 10% PhiX Sequencing Control V3 (Illumina) was added to the pooled amplicon library prior to running the sample on an Miseq Sequencer System (Illumina) to generate paired 2×250 bp reads. Samples were demultiplexed using the index sequences, fastq files were generated, and NGS analysis was performed using CRIS.py.^59 Final clones were authenticated using the PowerPlex® Fusion System (Promega) performed at the Hartwell Center (St. Jude) and tested negative for mycoplasma by the MycoAlert™Plus Mycoplasma Detection Kit (Lonza). Editing construct sequences and screening primers are listed below in Table 4.
hGSPT1 HiBiT assay. […] After 4 hrs incubation, the level of GSPT1 HiBiT tag protein was evaluated using Nano-Glo® HiBiT Lytic Detection System (Promega) according to the manufacturer's instruction.

[9] = biological target: T4, 6XHis-CRBN-DDB1 protein (Homo sapiens, UniProt Q96SW2); assay: CRBN fluorescence polarization assay; format: binding; details: class symbols; read-out: CRBN FP IC50
T4 construct: 6XHis (N)
T4 sequence (Q96SW2 whole entry): as the sequence (Q96SW2 whole entry) above
T4 sequence (Q16531 whole entry partner): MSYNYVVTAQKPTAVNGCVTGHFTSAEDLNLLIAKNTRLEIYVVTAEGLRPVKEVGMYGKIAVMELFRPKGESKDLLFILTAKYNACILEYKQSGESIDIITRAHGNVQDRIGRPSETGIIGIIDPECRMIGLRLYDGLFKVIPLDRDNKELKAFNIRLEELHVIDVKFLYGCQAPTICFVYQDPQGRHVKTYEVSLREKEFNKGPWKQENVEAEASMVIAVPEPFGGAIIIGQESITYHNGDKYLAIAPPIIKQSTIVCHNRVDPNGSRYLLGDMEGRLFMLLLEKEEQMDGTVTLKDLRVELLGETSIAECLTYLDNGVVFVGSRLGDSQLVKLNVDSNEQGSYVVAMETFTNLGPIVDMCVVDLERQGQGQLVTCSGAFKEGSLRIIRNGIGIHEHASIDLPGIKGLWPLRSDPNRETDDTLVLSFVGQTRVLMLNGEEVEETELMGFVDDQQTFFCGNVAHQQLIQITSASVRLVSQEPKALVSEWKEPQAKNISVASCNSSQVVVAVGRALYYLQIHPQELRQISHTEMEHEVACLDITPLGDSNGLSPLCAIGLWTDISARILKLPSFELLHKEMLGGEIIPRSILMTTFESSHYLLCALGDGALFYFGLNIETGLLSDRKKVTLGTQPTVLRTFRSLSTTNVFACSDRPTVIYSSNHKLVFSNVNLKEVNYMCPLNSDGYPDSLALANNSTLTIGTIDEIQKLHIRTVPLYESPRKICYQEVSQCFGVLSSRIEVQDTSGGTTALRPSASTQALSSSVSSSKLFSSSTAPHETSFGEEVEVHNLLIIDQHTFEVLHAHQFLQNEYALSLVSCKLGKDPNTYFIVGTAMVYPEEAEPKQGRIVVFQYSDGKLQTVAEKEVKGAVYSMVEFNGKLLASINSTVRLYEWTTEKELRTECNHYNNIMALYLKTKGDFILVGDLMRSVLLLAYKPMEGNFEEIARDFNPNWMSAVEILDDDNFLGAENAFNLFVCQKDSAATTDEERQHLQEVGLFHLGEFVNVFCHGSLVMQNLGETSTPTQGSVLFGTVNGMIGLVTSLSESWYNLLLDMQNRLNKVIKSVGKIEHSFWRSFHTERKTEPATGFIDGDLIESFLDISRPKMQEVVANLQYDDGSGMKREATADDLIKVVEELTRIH
Protocol: 6XHis-CRBN-DDB1 protein (200 nM) and Cy5-O-Len probe (30 nM) were combined in 20 mM HEPES pH 7, 150 mM NaCl, 0.005% Tween-20 assay buffer. […] The plates were incubated in the dark for 1 hour at room temperature and then read on an Envision plate reader (PerkinElmer, Massachusetts, USA).

[10] = MV4-11, 72 h, read-out: MV4-11 EC50
[11] = MV4-11, read-out: antiproliferative activity in MV4-11, EC50

Structure (SMILES): O=C1CCC(N2Cc3cc(CNC(=O)C(F)(F)c4ccc(Cl)cc4)ccc3C2=O)C(=O)N1 (stereo not drawn) [CC90009, reference compound]
Sol. (aqueous solubility) [1]: 77 µM

Structure (SMILES): O=C1CCC(N2Cc3cc(CNC(=O)C(F)(F)c4ccc(Cl)cc4)ccc3C2=O)C(=O)N1 (stereo not drawn) [CC-90009, reference compound]
Dmax at 10 µM ([2]; MV4-11 cells, 4 h, at 10 μM, read-out: GSPT1 maximum degradation efficacy, Dmax): 74%
Dmax ([2]; MV4-11 cells, 24 h, read-out: GSPT1 Dmax): > 90%
Dmax ([3]; 24 h): > 90%

Structure (SMILES): O=C1CCC(N2C(=O)c3ccc(NS(=O)(=O)c4ccccc4OC(F)(F)F)cc3C2=O)C(=O)N1 (stereo not drawn) [compound 1, N-(2-(2,6-dioxopiperidin-3-yl)-1,3-dioxoisoindolin-5-yl)-2-(trifluoromethoxy)benzenesulfonamide]
Sol. (aqueous solubility) [1]: 67 µM
IKZF1 degradation at 4 hours [3]: did not significantly degrade IKZF1
IKZF1 protein abundance after 24 hours [3]: dose-dependent decrease
time point at which caspase activation was observed [4]: 8 h
clearance [5]: 0.46 mL/min/kg
terminal elimination half-life (t1/2) [5]: 3.4 h
volume of distribution [5]: 0.15 L/kg
antiproliferative effect in presence of lenalidomide [6]: abrogating the antiproliferative effects
EC50 [7, 10]: 0.0015 µM
EC50 [7, 11]: 0.0015 µM

Sol. (aqueous solubility) [1]: 64 µM
effects on the protein levels of GSPT1 by immunoblotting ([2]; MV4-11 cells): no effects
effects on the protein levels of IKZF1 by immunoblotting [3]: no effects
IKZF1 protein abundance after 24 hours [3]: dose-dependent decrease
EC50 [7, 10]: > 10 µM
EC50 [7, 11]: 0.052 µM
Structure (SMILES): O=C1CCC(N2C(=O)c3ccc(NS(=O)(=O)c4cccc(OC(F)(F)F)c4)cc3C2=O)C(=O)N1 (stereo not drawn) [compound 2, N-(2-(2,6-dioxopiperidin-3-yl)-1,3-dioxoisoindolin-5-yl)-3-(trifluoromethoxy)benzenesulfonamide]

Structure (SMILES): Cc1c(Cl)cccc1S(=O)(=O)Nc1ccc2c(c1)C(=O)N(C1CCC(=O)NC1=O)C2=O (stereo not drawn) [compound 5, 3-chloro-N-(2-(2,6-dioxopiperidin-3-yl)-1,3-dioxoisoindolin-5-yl)-2-methylbenzenesulfonamide]
Sol. (aqueous solubility) [1]: 64 µM
Dmax ([2]; MV4-11, read-out: GSPT1 maximum degradation efficacy, Dmax): 60%
IKZF1 degradation at 4 hours [3]: did not significantly degrade IKZF1
time point at which caspase activation was observed [4]: 24 h
antiproliferative effect in presence of lenalidomide [6]: abrogating the antiproliferative effects
EC50 [7, 10]: 0.052 µM

EC50 [7, 10]: > 10 µM
Structure (SMILES): Cc1ccc(S(=O)(=O)Nc2ccc3c(c2)C(=O)N(C2CCC(=O)NC2=O)C3=O)cc1Cl (stereo not drawn) [compound 7, 3-chloro-N-(2-(2,6-dioxopiperidin-3-yl)-1,3-dioxoisoindolin-5-yl)-4-methylbenzenesulfonamide]

Sol. (aqueous solubility) [1]: 71 µM
EC50 [7, 10]: > 10 µM
Structure (SMILES): O=C1CCC(N2C(=O)c3ccc(NS(=O)(=O)c4ccccc4)cc3C2=O)C(=O)N1 (stereo not drawn) [compound 20, N-(2-(2,6-dioxopiperidin-3-yl)-1,3-dioxoisoindolin-5-yl)benzenesulfonamide]
cell potency in MV4-11 cells (in words) ([7]; MV4-11 cells): inactive

DC50 [8]: > 10 µM
Structure (SMILES): O=C1CCC(N2Cc3cc(NS(=O)(=O)c4ccccc4)ccc3C2=O)C(=O)N1 (stereo not drawn) [compound 38, N-(2-(2,6-dioxopiperidin-3-yl)-1-oxoisoindolin-5-yl)benzenesulfonamide]

DC50 [8]: < 1 µM
Structure (SMILES): O=C1CCC(N2Cc3cc(NS(=O)(=O)c4cccc(OC(F)(F)F)c4)ccc3C2=O)C(=O)N1 (stereo not drawn) [compound 43, N-(2-(2,6-dioxopiperidin-3-yl)-1-oxoisoindolin-5-yl)-3-(trifluoromethoxy)benzenesulfonamide]

DC50 [8]: > 10 µM
Structure (SMILES): O=C1CCC(N2Cc3cc(NS(=O)(=O)c4ccccc4C(F)(F)F)ccc3C2=O)C(=O)N1 (stereo not drawn) [compound 44, N-(2-(2,6-dioxopiperidin-3-yl)-1-oxoisoindolin-5-yl)-2-(trifluoromethyl)benzenesulfonamide]

DC50 [8]: < 1 µM
Structure (SMILES): CC(C)(C)c1ccc(S(=O)(=O)Nc2ccc3c(c2)CN(C2CCC(=O)NC2=O)C3=O)cc1 (stereo not drawn) [compound 46]

IC50 [9]: < 1 µM
Structure (SMILES): Cc1ccc(CS(=O)(=O)Nc2ccc3c(c2)C(=O)N(C2CCC(=O)NC2=O)C3=O)cc1 (stereo not drawn) [compound 58, N-(2-(2,6-dioxopiperidin-3-yl)-1,3-dioxoisoindolin-5-yl)-1-(p-tolyl)methanesulfonamide]

IC50 [9]: < 1 µM
Structure (SMILES): Cc1noc(C)c1S(=O)(=O)Nc1ccc2c(c1)C(=O)N(C1CCC(=O)NC1=O)C2=O (stereo not drawn) [compound 60, N-(2-(2,6-dioxopiperidin-3-yl)-1,3-dioxoisoindolin-5-yl)-3,5-dimethylisoxazole-4-sulfonamide]

IC50 [9]: < 1 µM
Structure (SMILES): O=C1CCC(N2C(=O)c3ccc(NS(=O)(=O)c4cccc(Cl)c4F)cc3C2=O)C(=O)N1 (stereo not drawn) [compound 61, 3-chloro-N-(2-(2,6-dioxopiperidin-3-yl)-1,3-dioxoisoindolin-5-yl)-2-fluorobenzenesulfonamide]

IC50 [9]: < 1 µM
DC50 [8]: > 10 µM
Structure (SMILES): O=C1CCC(N2C(=O)c3ccc(NS(=O)(=O)c4ccc(F)cc4Cl)cc3C2=O)C(=O)N1 (stereo not drawn) [compound 67, 2-chloro-N-(2-(2,6-dioxopiperidin-3-yl)-1,3-dioxoisoindolin-5-yl)-4-fluorobenzenesulfonamide]
